# Laboratory results from patent publication US20260157993A1, “USE OF 2-METHYLOXOLANE FOR FEEDING OVIPAROUS ANIMALS” (ECOXTRACT, priority 2022, published 2026).
# How the values were obtained:
# average human of 50 kg = settings: ICHQ3C R8, solvent to be limited; cited from earlier work
# rats = settings: 3-month ingestion; cited from earlier work
# human = settings: EFSA Opinion of Mar. 15, 2022; cited from earlier work
# domestic laying hens = test: Egg production of domestic laying hens after oral administration in capsules; format: in vivo, chicken; settings: for Number of eggs (average number of eggs per day laid by 4 chickens): oral capsules, control 3.5
# Experimental: In this example, domestic laying hens have been divided into four groups: • the 4 chickens of the control group have not ingested 2-methyloxolane. • the 12 chickens of the N×1 group have ingested pure liquid 2-methyloxolane in capsules. The ingested dose of pure liquid 2-methyloxoane was 3.18 mg/kg of the chicken/day, i.e. 40 mg/kg in the daily ration, • the 12 chickens of the N×5 group have ingested pure liquid 2-methyloxolane in capsules. The ingested dose of pure liquid 2-methyloxoane was 15.88 mg/kg of the chicken/day, i.e. 200 mg/kg in the daily ration, and • the 12 chickens of the N×10 group have ingested pure liquid 2-methyloxolane in capsules. The ingested dose of pure liquid 2-methyloxoane was 31.77 mg/kg of the chicken/day, i.e. 400 mg/kg in the daily ration (the group N×10). The egg production of each group has been monitored in order to statistically validate the significance of the effect of an oral administration of 2-methyloxolane on egg production. The statistical processing is as follows: A one-factor analysis of variance (ANOVA) has been carried out using the XLSTAT 2020.2.1 software on MS EXCEL 16.0.15225. […] In case of a significant difference between the averages, a Student's t-test with a level of significance of 5% will be applied for the comparison in pairs using the same software. In total, 1,115 eggs have been counted throughout the observations. Table 1 hereinbelow presents the average of the number of eggs per day laid by 4 chickens as a function of their basking group.
SMILES,Acceptable Daily Dose (average human of 50 kg) [mg],Dose with no undesirable effect observed (rats) [mg/kg body weight per day],Human exposure limit recommended by EFSA (human),"Effect of oral administration on number of laid eggs per chicken (domestic laying hens; 40 to 400 mg/kg in daily ration, no apparent dose effect, ANOVA and Student's t-test, 5% level)","Number of eggs (average number of eggs per day laid by 4 chickens) (domestic laying hens; N × 1 group: 3.18 mg/kg of the chicken/day, i.e. 40 mg/kg in the daily ration)","Number of eggs (average number of eggs per day laid by 4 chickens) (domestic laying hens; N × 5 group: 15.88 mg/kg of the chicken/day, i.e. 200 mg/kg in the daily ration)","Number of eggs (average number of eggs per day laid by 4 chickens) (domestic laying hens; N × 10 group: 31.77 mg/kg of the chicken/day, i.e. 400 mg/kg in the daily ration)",More eggs laid per week than animal whose feed is not supplemented (domestic laying hens; feed supplemented by the dietary supplement comprising 2-methyloxolane)
CCCCCC [hexane],2.9,,,,,,,
CC1CCCO1 (centres unmarked) [2-methyloxolane],,250,1 mg/kg human body weight per day,significantly increases,3.9,3.9,3.9,up to 14%
